Measurements from EP0971739B1 (priority 1997, dated 1998).

System: tetanus toxoid
Parameters: species or system ICR mice
Details: mouse, in vivo

CCCCCCCCCCCCCCCC(=O)OC[C@H](COP(=O)([O-])OCC[N+](C)(C)C)OC(=O)CCCCCCCCCCCCCCC [DPPC, 1,2-Dipalmitoyl-sn-glycero-3-phosphocholine]
Anti-Tetanus Toxoid Titer^-1 Fecal Extract d7P2° IgA: <50
Anti-Tetanus Toxoid Titer^-1 Fecal Extract d7P2° IgG: <50
Anti-Tetanus Toxoid Titers^-1 IgG1: 25,600
Anti-Tetanus Toxoid Titers^-1 IgG2a: 1,600
Anti-Tetanus Toxoid Titers^-1 IgG2b: 3,200
Serum Anti-Tetanus Toxoid Titer^-1 IgA-Specific d10P2°: 100
Serum Anti-Tetanus Toxoid Titer^-1 IgA-Specific d10P3°: 200
Serum Anti-Tetanus Toxoid Titer^-1 IgG-Specific d10P2°: 6,400
Serum Anti-Tetanus Toxoid Titer^-1 IgG-Specific d10P3°: 6,400
